In ChEMBL document CHEMBL2321833, “Design and optimization of selective protein kinase C θ (PKCθ) inhibitors for the treatment of autoimmune diseases” (J Med Chem, 2013):

Legend:
[1] = molecular target: Protein kinase C alpha type (Homo sapiens, UniProt P17252); test: Inhibition of PKC alpha (unknown origin) using RRRRRKGSFKRKA as substrate after 15 mins by spectrophotometry in presence of ATP
[2] = molecular target: T1, Protein kinase C theta type (Homo sapiens, UniProt Q04759); test: Inhibition of PKC-theta in human PBMC cells assessed as inhibition of IL-2 after 24 hrs by bead-based FLISA assay; assay type: cell-based
T1 sequence (Q04759 whole entry): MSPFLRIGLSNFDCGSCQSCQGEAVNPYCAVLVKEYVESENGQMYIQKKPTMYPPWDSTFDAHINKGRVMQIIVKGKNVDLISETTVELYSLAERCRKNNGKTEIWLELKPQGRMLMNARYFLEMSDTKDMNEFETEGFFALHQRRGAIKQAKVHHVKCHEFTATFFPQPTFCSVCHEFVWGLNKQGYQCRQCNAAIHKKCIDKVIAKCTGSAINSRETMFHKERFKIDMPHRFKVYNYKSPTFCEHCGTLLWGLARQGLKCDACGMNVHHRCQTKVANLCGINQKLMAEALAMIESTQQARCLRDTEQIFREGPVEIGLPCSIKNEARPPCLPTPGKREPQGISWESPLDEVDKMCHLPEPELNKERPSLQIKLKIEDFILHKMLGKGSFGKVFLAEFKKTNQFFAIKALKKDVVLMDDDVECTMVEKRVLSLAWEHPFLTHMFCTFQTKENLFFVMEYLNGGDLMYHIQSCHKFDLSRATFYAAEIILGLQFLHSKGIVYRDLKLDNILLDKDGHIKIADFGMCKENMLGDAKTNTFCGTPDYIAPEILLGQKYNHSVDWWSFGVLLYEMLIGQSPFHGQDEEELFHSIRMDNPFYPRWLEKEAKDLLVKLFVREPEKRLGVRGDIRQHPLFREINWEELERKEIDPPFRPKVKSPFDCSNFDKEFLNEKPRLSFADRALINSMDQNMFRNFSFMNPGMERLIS

[3] = molecular target: Protein kinase C delta type (Homo sapiens, UniProt Q05655); test: Inhibition of PKC delta (unknown origin) using ERMRPRKRQGSVRRRV as substrate after 15 mins by spectrophotometry in presence of ATP
Chain of Protein kinase C delta type (Q05655 whole entry): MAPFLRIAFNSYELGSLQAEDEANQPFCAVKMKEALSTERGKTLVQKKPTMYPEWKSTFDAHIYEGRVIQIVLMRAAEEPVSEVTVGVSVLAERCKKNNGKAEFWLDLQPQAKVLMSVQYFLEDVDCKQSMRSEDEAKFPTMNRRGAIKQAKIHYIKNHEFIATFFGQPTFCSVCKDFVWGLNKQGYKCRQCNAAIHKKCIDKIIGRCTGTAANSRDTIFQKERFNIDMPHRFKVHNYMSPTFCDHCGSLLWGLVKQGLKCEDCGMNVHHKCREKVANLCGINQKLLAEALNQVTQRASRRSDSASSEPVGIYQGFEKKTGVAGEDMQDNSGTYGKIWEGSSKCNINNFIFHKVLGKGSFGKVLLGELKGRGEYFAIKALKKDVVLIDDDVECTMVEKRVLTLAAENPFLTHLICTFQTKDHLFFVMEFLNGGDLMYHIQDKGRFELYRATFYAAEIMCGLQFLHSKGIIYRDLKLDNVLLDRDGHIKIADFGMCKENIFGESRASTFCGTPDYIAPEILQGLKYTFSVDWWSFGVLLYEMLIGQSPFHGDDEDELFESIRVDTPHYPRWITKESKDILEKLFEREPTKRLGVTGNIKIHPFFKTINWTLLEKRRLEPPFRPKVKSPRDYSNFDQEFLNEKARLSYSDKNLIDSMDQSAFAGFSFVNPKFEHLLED

[4] = molecular target: T1, Protein kinase C theta type; test: Inhibition of full-length recombinant PKC theta (unknown origin) using ERMRPRKRQGSVRRRV as substrate after 60 mins by scintillation counting analysis in presence of [gamma-33P]ATP
[5] = Oral bioavailability in rat at 10 mg/kg; assay type: ADME, organism-based; details: in vivo
[6] = Clearance in rat at 3 mg/kg, iv and 10 mg/kg, po; assay type: ADME, organism-based; details: in vivo
[7] = Half life in rat at 3 mg/kg, iv and 10 mg/kg, po; assay type: ADME, organism-based; details: in vivo
Blood = test: Inhibition of PKC theta in human whole blood assessed as IL-2 level after 1 hr by ELISA; assay type: functional, tissue-based
[8] = molecular target: T2, Tyrosine-protein kinase ZAP-70 (Homo sapiens, UniProt P43403); test: Inhibition of Zap70 (unknown origin)
T2 sequence (P43403 whole entry): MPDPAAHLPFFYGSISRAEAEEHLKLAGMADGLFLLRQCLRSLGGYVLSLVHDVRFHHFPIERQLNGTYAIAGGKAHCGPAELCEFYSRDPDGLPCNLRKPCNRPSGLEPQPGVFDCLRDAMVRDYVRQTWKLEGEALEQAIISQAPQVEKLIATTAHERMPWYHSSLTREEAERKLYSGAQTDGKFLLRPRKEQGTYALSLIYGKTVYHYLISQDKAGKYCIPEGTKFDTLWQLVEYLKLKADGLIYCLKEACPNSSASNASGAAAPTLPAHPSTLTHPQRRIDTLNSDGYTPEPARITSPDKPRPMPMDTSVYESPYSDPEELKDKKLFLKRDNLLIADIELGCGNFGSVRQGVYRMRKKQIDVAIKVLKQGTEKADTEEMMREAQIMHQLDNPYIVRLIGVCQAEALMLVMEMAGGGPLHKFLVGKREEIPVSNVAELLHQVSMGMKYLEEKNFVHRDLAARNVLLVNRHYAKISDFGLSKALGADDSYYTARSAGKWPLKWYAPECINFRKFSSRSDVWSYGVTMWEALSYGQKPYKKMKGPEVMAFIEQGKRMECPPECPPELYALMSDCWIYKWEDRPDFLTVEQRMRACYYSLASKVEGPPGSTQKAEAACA

[9] = molecular target: T3, Protein kinase C beta type (Homo sapiens, UniProt P05771); test: Inhibition of PKC beta2 (unknown origin)
T3 sequence (P05771 whole entry): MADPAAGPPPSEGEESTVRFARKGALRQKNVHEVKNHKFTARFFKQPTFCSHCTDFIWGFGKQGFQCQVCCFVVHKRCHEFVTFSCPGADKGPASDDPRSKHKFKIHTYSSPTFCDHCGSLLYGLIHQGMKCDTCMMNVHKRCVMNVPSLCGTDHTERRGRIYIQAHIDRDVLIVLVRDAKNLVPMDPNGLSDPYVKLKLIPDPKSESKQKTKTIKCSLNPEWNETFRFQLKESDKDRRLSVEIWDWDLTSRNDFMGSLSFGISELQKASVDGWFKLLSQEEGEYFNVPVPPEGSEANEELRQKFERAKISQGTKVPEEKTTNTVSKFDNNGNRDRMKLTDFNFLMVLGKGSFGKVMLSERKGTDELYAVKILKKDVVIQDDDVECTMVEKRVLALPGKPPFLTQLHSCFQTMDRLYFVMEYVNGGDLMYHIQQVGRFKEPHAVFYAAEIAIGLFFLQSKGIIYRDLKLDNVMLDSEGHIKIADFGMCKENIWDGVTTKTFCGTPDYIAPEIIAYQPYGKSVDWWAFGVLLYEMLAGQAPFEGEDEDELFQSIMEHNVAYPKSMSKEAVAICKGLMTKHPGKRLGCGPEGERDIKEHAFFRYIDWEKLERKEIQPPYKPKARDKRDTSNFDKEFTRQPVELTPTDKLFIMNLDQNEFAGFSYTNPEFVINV

[10] = Cmax in Balb/c mouse at 25 mg/kg, po; assay type: ADME, organism-based; parameters: dose 25 mg/kg, route oral; details: in vivo
[11] = molecular target: T4, Protein kinase C zeta type (Homo sapiens, UniProt Q05513); test: Inhibition of PKC zeta (unknown origin)
T4 sequence (Q05513 whole entry): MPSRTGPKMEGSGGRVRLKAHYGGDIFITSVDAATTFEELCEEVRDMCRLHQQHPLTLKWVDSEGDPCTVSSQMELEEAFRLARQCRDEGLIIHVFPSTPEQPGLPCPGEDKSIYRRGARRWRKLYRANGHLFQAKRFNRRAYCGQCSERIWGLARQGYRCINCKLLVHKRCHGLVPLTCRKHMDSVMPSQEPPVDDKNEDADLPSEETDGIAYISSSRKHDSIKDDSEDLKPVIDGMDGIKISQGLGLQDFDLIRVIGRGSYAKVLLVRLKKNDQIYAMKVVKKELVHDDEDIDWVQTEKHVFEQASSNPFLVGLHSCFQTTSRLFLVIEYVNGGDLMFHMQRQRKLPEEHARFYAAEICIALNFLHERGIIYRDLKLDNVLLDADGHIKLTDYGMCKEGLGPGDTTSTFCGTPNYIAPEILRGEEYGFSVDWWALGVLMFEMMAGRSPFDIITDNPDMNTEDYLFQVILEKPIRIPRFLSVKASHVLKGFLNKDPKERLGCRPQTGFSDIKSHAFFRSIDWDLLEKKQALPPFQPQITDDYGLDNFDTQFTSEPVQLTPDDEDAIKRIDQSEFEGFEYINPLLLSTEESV

[12] = molecular target: T5, Serine/threonine-protein kinase D1 (Homo sapiens, UniProt Q15139); test: Inhibition of PKC mu (unknown origin)
T5 sequence (Q15139 whole entry): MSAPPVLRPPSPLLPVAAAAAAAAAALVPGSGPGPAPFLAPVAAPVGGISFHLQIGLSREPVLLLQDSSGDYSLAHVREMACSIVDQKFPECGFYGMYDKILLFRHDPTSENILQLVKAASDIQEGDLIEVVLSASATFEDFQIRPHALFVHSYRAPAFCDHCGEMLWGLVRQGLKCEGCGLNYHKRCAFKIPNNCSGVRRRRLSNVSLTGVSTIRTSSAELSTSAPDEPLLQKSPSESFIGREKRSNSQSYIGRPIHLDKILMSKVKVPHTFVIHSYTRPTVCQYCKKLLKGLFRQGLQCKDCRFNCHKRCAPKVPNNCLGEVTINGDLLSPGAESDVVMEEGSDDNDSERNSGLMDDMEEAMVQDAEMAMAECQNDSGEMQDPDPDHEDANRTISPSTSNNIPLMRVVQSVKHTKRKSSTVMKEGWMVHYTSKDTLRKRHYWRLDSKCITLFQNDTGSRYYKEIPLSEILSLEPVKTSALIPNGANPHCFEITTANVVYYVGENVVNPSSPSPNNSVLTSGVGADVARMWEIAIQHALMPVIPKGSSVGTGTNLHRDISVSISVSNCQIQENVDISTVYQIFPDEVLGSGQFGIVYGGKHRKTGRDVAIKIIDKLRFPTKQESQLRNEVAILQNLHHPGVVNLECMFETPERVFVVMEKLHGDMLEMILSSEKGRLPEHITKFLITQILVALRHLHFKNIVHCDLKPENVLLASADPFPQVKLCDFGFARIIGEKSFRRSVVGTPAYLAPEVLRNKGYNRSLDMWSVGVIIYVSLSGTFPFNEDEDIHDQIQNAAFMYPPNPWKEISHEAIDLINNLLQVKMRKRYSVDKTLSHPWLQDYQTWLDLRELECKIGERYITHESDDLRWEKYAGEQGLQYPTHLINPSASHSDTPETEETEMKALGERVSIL

[13] = molecular target: Protein kinase C gamma type (Homo sapiens, UniProt P05129); test: Inhibition of PKC gamma (unknown origin)
[14] = molecular target: Protein kinase C eta type (Homo sapiens, UniProt P24723); test: Inhibition of PKC eta (unknown origin)
Chain of Protein kinase C eta type (P24723 whole entry): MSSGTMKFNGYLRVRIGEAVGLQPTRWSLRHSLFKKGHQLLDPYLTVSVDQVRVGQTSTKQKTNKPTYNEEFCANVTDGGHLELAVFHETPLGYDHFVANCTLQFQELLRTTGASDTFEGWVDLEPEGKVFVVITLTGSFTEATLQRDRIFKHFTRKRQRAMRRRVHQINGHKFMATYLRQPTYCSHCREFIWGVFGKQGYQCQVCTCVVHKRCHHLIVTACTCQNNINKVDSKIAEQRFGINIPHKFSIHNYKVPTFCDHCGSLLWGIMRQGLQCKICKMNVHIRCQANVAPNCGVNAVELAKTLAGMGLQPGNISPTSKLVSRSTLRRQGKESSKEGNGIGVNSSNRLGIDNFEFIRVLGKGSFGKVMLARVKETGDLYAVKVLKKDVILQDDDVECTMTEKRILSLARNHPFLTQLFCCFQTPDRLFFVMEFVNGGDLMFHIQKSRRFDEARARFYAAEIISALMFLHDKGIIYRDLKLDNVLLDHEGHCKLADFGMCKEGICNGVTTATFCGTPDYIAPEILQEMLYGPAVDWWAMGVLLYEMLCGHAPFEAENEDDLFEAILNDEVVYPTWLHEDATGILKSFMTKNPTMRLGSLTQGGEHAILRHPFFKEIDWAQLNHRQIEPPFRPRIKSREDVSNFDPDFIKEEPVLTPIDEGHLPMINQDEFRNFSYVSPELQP

[15] = molecular target: T6, Tyrosine-protein kinase ITK/TSK (Homo sapiens, UniProt Q08881); test: Inhibition of Itk (unknown origin)
T6 sequence (Q08881 whole entry): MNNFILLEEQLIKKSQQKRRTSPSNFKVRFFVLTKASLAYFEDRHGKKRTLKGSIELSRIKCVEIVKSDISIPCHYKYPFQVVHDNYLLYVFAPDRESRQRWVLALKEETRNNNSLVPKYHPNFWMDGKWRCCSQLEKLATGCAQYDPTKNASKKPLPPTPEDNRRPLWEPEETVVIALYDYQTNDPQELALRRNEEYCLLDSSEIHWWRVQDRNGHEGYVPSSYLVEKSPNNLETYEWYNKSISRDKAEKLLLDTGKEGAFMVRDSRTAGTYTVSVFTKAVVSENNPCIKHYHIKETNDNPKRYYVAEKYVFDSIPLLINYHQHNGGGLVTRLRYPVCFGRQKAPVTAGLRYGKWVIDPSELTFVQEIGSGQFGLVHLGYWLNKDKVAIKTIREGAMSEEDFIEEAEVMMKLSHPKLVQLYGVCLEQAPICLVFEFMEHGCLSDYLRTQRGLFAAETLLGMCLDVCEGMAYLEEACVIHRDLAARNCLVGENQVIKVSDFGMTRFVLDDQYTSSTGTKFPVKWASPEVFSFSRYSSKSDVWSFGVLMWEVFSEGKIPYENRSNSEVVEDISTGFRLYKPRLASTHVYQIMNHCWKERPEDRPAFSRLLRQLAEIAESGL

[16] = molecular target: T7, Protein kinase C epsilon type (Homo sapiens, UniProt Q02156); test: Inhibition of PKC epsilon (unknown origin)
T7 sequence (Q02156 whole entry): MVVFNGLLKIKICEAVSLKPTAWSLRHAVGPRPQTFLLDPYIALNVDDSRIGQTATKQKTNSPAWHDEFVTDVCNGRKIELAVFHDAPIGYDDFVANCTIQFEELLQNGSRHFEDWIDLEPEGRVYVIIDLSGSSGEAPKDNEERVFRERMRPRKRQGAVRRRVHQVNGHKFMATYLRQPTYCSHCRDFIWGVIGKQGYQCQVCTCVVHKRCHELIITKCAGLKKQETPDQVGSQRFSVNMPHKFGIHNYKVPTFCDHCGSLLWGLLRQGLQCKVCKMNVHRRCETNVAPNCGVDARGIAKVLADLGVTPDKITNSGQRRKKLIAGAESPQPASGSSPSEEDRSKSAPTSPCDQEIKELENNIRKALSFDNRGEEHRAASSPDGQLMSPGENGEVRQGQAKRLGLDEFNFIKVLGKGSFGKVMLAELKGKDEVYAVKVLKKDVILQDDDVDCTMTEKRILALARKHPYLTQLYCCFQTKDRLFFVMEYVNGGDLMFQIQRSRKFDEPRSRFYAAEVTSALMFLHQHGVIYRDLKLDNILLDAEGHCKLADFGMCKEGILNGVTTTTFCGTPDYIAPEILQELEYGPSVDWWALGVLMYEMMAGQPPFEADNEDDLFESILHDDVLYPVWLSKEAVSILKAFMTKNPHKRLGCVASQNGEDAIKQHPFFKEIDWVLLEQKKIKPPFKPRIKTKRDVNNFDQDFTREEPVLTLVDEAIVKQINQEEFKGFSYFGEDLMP

[17] = molecular target: T3, Protein kinase C beta type; test: Inhibition of PKC beta1 (unknown origin)
[18] = molecular target: RAF proto-oncogene serine/threonine-protein kinase (Homo sapiens, UniProt P04049); test: Inhibition of c-Raf (unknown origin)
Chain of RAF proto-oncogene serine/threonine-protein kinase (P04049 whole entry): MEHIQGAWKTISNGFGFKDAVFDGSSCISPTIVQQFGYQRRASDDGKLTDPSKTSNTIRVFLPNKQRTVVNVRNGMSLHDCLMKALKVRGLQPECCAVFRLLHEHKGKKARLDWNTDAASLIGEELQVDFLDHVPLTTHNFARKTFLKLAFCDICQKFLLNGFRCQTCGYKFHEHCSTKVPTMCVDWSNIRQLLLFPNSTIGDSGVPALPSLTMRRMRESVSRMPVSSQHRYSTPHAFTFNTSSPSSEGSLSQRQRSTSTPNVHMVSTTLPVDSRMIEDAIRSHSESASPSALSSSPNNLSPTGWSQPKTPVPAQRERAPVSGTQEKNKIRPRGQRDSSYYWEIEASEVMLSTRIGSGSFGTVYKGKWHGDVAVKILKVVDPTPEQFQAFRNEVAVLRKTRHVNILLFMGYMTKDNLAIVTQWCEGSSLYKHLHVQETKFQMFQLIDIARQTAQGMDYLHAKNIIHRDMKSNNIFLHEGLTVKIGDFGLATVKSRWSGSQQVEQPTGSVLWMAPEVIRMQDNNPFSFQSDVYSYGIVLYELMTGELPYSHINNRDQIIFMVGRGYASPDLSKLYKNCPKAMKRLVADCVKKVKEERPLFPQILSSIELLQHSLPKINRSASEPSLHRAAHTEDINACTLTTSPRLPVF

[19] = molecular target: Mitogen-activated protein kinase 3 (Homo sapiens, UniProt P27361); test: Inhibition of Erk-1 (unknown origin)
[20] = molecular target: Tyrosine-protein kinase Lyn (Homo sapiens, UniProt P07948); test: Inhibition of Lyn (unknown origin)
[21] = molecular target: Tyrosine-protein kinase Fyn (Homo sapiens, UniProt P06241); test: Inhibition of Fyn (unknown origin)
[22] = molecular target: Tyrosine-protein kinase Lck (Homo sapiens, UniProt P06239); test: Inhibition of Lck (unknown origin)

Structure (SMILES) | Ki [1] [nM] | IC50 [2] [nM] | Ki [3] [nM] | Ki [4] [nM] | also measured
Nc1ncccc1C(=O)c1cccc(N2CCCNCC2)n1 | 428 |  |  |  | 
CC(C)[C@@](C)(O)[C@@H]1CN(c2nc(-c3n[nH]c4ncccc34)c(F)cc2O)CCN1 | 56 | 4 | < 10 | 0.1 | 
CC(C)[C@@](C)(O)[C@@H]1CN(c2nc(-c3n[nH]c4ncccc34)c(F)cc2CO)CCN1 | 205 | 1 | < 10 | 0.1 | 
CC(C)[C@@](C)(O)[C@@H]1CN(c2nc(-c3n[nH]c4ncccc34)c(F)cc2F)CCN1 | 198 | 2 | 18 | 0.1 | bioavailability [5]: 30%; clearance [6]: 9.5 mL/min/kg; half-life [7]: 1.7 h; IC50 (Blood): 80 nM
CC(C)[C@@](C)(O)[C@@H]1CN(c2nc(-c3n[nH]c4ncccc34)c(F)cc2Cl)CCN1 | 356 | 11 | 16 | 0.08 | bioavailability [5]: 65%; clearance [6]: 7 mL/min/kg; half-life [7]: 4.7 h; Ki [8]: > 1000 nM; Ki [9]: 393 nM; Cmax [10]: 700 ng/mL; Ki [11]: > 5000 nM; Ki [12]: 2420 nM; Ki [13]: 725 nM; Ki [14]: 3.5 nM; Ki [15]: > 1000 nM; Ki [16]: 1 nM; Ki [17]: 15 nM; Ki [18]: > 1000 nM; IC50 (Blood): 70 nM; Ki [19]: > 1000 nM; Ki [20]: > 1000 nM; Ki [21]: > 1000 nM; Ki [22]: > 1000 nM
CC(C)C[C@H]1CN(c2ccc(F)c(-c3n[nH]c4ncccc34)n2)C[C@@H](C)N1 |  |  | 130 | 5 | 
c1cc(-c2n[nH]c3ncccc23)nc(N2CCNCC2)c1 | 1230 |  |  |  | 
Fc1ccc(N2CCNCC2)nc1-c1n[nH]c2ncccc12 | > 1250 |  | 722 | 60 | 
CC(C)C[C@@H]1CN(c2ccc(F)c(-c3n[nH]c4ncccc34)n2)CCN1 |  |  | 792 |  | 
CC(C)[C@@](C)(O)[C@@H]1CN(c2ccc(C(F)(F)F)c(-c3n[nH]c4ncccc34)n2)CCN1 (racemic) | > 1250 | 420 | 957 | 20 | 

Further lines, with some results ahead:

Ki [1] [nM] | IC50 [2] [nM] | Ki [3] [nM] | Ki [4] [nM] | Structure (SMILES) | also measured
> 1250 |  |  |  | CC(C)[C@@](C)(O)[C@@H]1CN(c2nc(-c3n[nH]c4ncccc34)c(F)cc2C#N)CCN1 | 
 |  | 358 |  | CC(C)C[C@H]1CN(c2ccc(F)c(-c3n[nH]c4ncccc34)n2)CCN1 | 
 |  | > 1250 | > 700 | CC(C)C[C@H]1CN(c2ccc(F)c(-c3n[nH]c4ncccc34)n2)C[C@H](C)N1 | 
549 |  | 57 |  | CC(C)[C@@](C)(O)[C@@H]1CN(c2ccc(F)c(-c3n[nH]c4ncccc34)n2)CCN1 | bioavailability [5]: 36%; clearance [6]: 39 mL/min/kg; half-life [7]: 2.6 h; IC50 (Blood): 200 nM
 |  | > 1250 |  | CC(C)[C@](C)(O)[C@H]1CN(c2ccc(F)c(-c3n[nH]c4ncccc34)n2)CCN1 | 
 |  | 120 |  | CC(C)[C@](C)(O)[C@@H]1CN(c2ccc(F)c(-c3n[nH]c4ncccc34)n2)CCN1 | 
 |  | > 1250 |  | CC(C)[C@@](C)(O)[C@H]1CN(c2ccc(F)c(-c3n[nH]c4ncccc34)n2)CCN1 | 
1240 | 170 | 547 | 21 | CC(C)[C@@](C)(O)[C@@H]1CN(c2ccc(Cl)c(-c3n[nH]c4ncccc34)n2)CCN1 | 
